Measured values reported in patent US5753695A, “Flavilium compounds and method of using” (Biogal Gyogyszergyar RT, priority 1992, dated 1998).

What was measured:
[1] = tested on: HIV-1 IIIB; experiment: HIV reverse transcriptase activity / HIV replication in infected MT-4 and H9 human lymphocyte cell-lines; format: cell-based, HIV-1 strain IIIB
Procedure: The HIV reverse transcriptase inhibiting activity of compounds of formula (I) of the invention was measured by the method of Hoffman, A. D. et al. described in Virology, Vol. 147, pp. 326-335, 1985.
The measurement results are shown for the model compound 5,7,4'-trihydroxy-4,3',5'-trimethyl-flavilium chloride (hereinafter referred to as "BIOGAL 6") and prepared as described in Example 1 below.
The active agents were tested on MT-4 and H9 human lymphocyte cell-lines infected with the strain HIV-1 IIIB. The cells were infected with 20 TCID50 of the HIV-1 virus.
[…] The active agent was first added to the culture 4 hours before the infection, and then 24, and 48 hours after infection. HIV infected, untreated MT-4 and H9 cells were used, as well as uninfected, untreated cells as a control. The AZT-control was zidovudine (ZDU) sold by Burroughs Wellcome Company under the name Retrovir.
Reverse transcriptase inhibiting activity was determined on 500 μl aliquots from supernatant of the culture and their virus concentration was measured. The results are given in cpm/cm^3 indicating ^3 H-TTP.

[2] = tested on: CFP/SPF laboratory mice; experiment: Acute toxicity, CFP/SPF laboratory mice; format: in vivo; conditions: oral doses even as high as 2,000 μg/kg
Procedure: (§1) Acute toxicity examinations on CFP/SPF laboratory mice strains and WISTAR Charles River/SPF laboratory rat strains, orally and intravenously have shown that BIOGAL-6 is nontoxic at oral doses even as high as […].

[3] = tested on: WISTAR Charles River/SPF laboratory rat strains; experiment: Acute toxicity, WISTAR Charles River/SPF laboratory rats; format: in vivo; conditions: oral doses even as high as 2,000 μg/kg
Procedure: as §1

Compound	RT activity ([1]; Table 1, 5 μg/cm^3, 7 day) [cpm/cm^3]	RT activity ([1]; Table 1, 5 μg/cm^3, 10 day) [cpm/cm^3]	RT activity ([1]; Table 1, 5 μg/cm^3, 18 day) [cpm/cm^3]	RT activity ([1]; Table 1, 20 μg/cm^3, 7 day) [cpm/cm^3]	RT activity ([1]; Table 1, 20 μg/cm^3, 10 day) [cpm/cm^3]	RT activity ([1]; Table 1, 20 μg/cm^3, 18 day) [cpm/cm^3]	RT activity ([1]; Table 1, 100 μg/cm^3, 7 day) [cpm/cm^3]	RT activity ([1]; Table 1, 100 μg/cm^3, 10 day) [cpm/cm^3]	RT activity ([1]; Table 1, 100 μg/cm^3, 18 day) [cpm/cm^3]	RT activity ([1]; Table 2, 0.1 μg/cm^3, 7 day) [cpm/cm^3]	RT activity ([1]; Table 2, 0.1 μg/cm^3, 10 day) [cpm/cm^3]	RT activity ([1]; Table 2, 0.1 μg/cm^3, 18 day) [cpm/cm^3]	RT activity ([1]; Table 2, 0.5 μg/cm^3, 7 day) [cpm/cm^3]	RT activity ([1]; Table 2, 0.5 μg/cm^3, 10 day) [cpm/cm^3]	RT activity ([1]; Table 2, 0.5 μg/cm^3, 18 day) [cpm/cm^3]	RT activity ([1]; Table 2, 1.0 μg/cm^3, 7 day) [cpm/cm^3]	RT activity ([1]; Table 2, 1.0 μg/cm^3, 10 day) [cpm/cm^3]	RT activity ([1]; Table 2, 1.0 μg/cm^3, 18 day) [cpm/cm^3]	RT activity ([1]; Table 2, 2.5 μg/cm^3, 7 day) [cpm/cm^3]	RT activity ([1]; Table 2, 2.5 μg/cm^3, 10 day) [cpm/cm^3]	further results
Cc1cn([C@H]2C[C@H](N=[N+]=[N-])[C@@H](CO)O2)c(=O)[nH]c1=O [AZT, azidothymidine, reference compound]	2.195	2.127	38.797	2.386	2.224	1.921	2.220	2.181	1.838	7.392	125.627	62.817	6.148	75.051	84.047	3.989	15.115	75.539	3.231	9.083	RT activity ([1]; Table 2, 2.5 μg/cm^3, 18 day): 116.001 cpm/cm^3; RT activity ([1]; Table 2, 5.0 μg/cm^3, 7 day): 1.724 cpm/cm^3; RT activity ([1]; Table 2, 5.0 μg/cm^3, 10 day): 3.571 cpm/cm^3; RT activity ([1]; Table 2, 5.0 μg/cm^3, 18 day): 51.735 cpm/cm^3
Cc1cc(-c2cc(C)c3c(O)cc(O)cc3[o+]2)cc(C)c1O [BIOGAL 6, 5,7,4'-trihydroxy-4,3',5'-trimethyl-flavilium chloride]	1.795	1.228	1.198	1.748	1.626	1.300	1.666	1.300	1.359	111.035	99.813	45.535	108.846	98.150	43.804	96.638	75.917	38.595	6.231	8.938	acute toxicity [2]: nontoxic; acute toxicity [3]: nontoxic; effect on HIV (in words) ([1]; 1.0 μg/cm^3 and below): completely ineffective; effect on HIV replication (in words) ([1]; 5 μg/cm^3): completely blocked the HIV replication; duration of effect compared to AZT (in words), FIG. 1 ([1]; 5 μg/cm^3, FIG. 1): long lasting when compared to AZT; effect on HIV production (in words), FIG. 1 ([1]; 5 μg/cm^3, FIG. 1): completely blocked HIV production; duration of effect on HIV (in words) ([1]; 2.5 and 5 μg/cm^3): long-lasting; RT activity ([1]; Table 2, 2.5 μg/cm^3, 18 day): 6.803 cpm/cm^3; RT activity ([1]; Table 2, 5.0 μg/cm^3, 7 day): 1.478 cpm/cm^3; RT activity ([1]; Table 2, 5.0 μg/cm^3, 10 day): 1.019 cpm/cm^3; RT activity ([1]; Table 2, 5.0 μg/cm^3, 18 day): 1.226 cpm/cm^3
